Assay results as given in ChEMBL document CHEMBL4406873, “Optimization of the chromone scaffold through QSAR and docking studies: Identification of potent inhibitors of ABCG2” (Eur J Med Chem, 2019).

Molecular target: T1, Broad substrate specificity ATP-binding cassette transporter ABCG2 (Homo sapiens, UniProt Q9UNQ0)
T1 sequence (Q9UNQ0 whole entry): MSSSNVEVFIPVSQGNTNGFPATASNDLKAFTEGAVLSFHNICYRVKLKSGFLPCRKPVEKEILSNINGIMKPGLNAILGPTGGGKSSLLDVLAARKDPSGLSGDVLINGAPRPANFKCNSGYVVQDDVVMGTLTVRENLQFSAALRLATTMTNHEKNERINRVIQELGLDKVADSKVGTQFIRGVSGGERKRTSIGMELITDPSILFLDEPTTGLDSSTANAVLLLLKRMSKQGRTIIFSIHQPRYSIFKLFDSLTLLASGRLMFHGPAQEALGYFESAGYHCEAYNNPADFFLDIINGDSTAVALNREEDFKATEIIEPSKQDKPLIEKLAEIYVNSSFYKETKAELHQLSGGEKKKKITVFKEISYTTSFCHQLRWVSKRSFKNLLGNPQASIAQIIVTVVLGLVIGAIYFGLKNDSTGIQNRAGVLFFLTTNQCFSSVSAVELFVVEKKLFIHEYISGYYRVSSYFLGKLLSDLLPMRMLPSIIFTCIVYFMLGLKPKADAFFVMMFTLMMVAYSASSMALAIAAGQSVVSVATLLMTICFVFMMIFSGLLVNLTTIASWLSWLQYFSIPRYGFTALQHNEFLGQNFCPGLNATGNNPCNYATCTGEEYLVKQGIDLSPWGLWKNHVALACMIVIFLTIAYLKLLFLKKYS
Assay: Inhibition of ABCG2 (unknown origin) expressed in HEK293 cells assessed as increase in mitoxantrone accumulation incubated for 30 mins by flow cytometric method
Type: cell-based

Row | Structure (SMILES) | EC50 [nM]
1 | COc1ccc2[nH]cc(CCNC(=O)c3cc(=O)c4c(OCc5ccc(Br)cc5Br)cccc4o3)c2c1 | 46
2 | COc1ccc2[nH]cc(CCNC(=O)c3cc(=O)c4c(OCc5cc(Br)cc(Br)c5)cccc4o3)c2c1 | 97
